Values of other authors as cited in patent US20070232597A1, “Compounds, Compositions, and Methods” (priority 2003, published 2007).

Tested on: A549 cells
Settings: data provided by National Cancer Institute, Developmental Therapeutic Program

| Structure (SMILES) | GI50 [nM] |
| --- | --- |
| O=c1[nH]cc(F)c(=O)[nH]1 [5-fluorouracil] | 1000 |
| COc1cccc2c1C(=O)c1c(O)c3c(c(O)c1C2=O)C[C@@](O)(C(=O)CO)C[C@@H]3O[C@H]1C[C@H](N)[C@H](O)[C@H](C)O1 [doxorubicin] | 63 |
| NC(=O)NO [hydroxyurea] | 500000 |
| CC(=O)O[C@H]1C(=O)[C@@]2(C)[C@H]([C@H](OC(=O)c3ccccc3)[C@]3(O)C[C@H](OC(=O)[C@H](O)[C@@H](NC(=O)c4ccccc4)c4ccccc4)C(C)=C1C3(C)C)[C@]1(OC(C)=O)CO[C@@H]1C[C@@H]2O [paclitaxel] | 4 |
